Molecular target: T1, human ferroportin (Homo sapiens, UniProt Q9NP59)
T1 construct: luciferase reporter (read with the Nano-Glo Luciferase Assay System); expressed in transfected cells; host or cells: CHO cells, stably transfected, expression induced with doxycycline
T1 sequence (Q9NP59 1-571): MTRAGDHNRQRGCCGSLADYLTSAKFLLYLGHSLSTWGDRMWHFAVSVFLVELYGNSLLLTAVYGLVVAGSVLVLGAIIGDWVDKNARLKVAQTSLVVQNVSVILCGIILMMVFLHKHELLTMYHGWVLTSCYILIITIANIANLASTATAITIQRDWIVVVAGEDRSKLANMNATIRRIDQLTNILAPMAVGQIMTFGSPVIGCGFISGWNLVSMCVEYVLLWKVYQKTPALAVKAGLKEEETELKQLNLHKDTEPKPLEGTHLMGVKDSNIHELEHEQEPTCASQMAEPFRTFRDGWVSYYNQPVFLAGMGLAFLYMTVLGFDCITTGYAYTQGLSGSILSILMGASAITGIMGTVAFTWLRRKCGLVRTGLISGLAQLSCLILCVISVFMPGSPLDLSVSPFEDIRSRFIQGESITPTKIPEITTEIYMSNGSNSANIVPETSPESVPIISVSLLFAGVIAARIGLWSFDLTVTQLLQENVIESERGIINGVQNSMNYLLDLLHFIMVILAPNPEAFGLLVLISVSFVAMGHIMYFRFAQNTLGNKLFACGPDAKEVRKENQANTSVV
Assay: Biological in-vitro ferroportin internalization assay (luciferase reporter)
Format: cell-based
Details: average pEC50; stably-transfected CHO cell line expressing human ferroportin tagged to a luciferase reporter; 6 h incubation with test compound
Summary of the method: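 Stably transfected CHO cells expressing luciferase-tagged human ferroportin, plated 24 h with ferric ammonium citrate and induced with doxycycline for 24 h. Compounds incubated 6 h, then luciferase activity measured by Nano-Glo; average pEC50 reported.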

SMILES	pEC50
CN(c1nc(-c2ccccn2)nc2c1CCC2)[C@H](CO)C(=O)NC(C)(C)C [Compound 124, (2R)—N-tert-butyl-3-hydroxy-2-{methyl[2-(pyridin-2-yl)-5H,6H,7H-cyclopenta[d]pyrimidin-4-yl]amino}propanamide]	7
CN(CC(=O)NC(C)(C)C)c1nc(-c2cn(C)cn2)nc2c1CCC2 [Compound 125, N-tert-butyl-2-{methyl[2-(1-methyl-1H-imidazol-4-yl)-5H,6H,7H-cyclopenta[d]pyrimidin-4-yl]amino}acetamide]	7.5
CCN(CC(=O)NC(C)(C)C)c1nc(-c2cc(OC)ccn2)nc2c1CCC2 [Compound 126, N-tert-butyl-2-{ethyl[2-(4-methoxypyridin-2-yl)-5H,6H,7H-cyclopenta[d]pyrimidin-4-yl]amino}acetamide]	7.9
CN(CC(=O)Nc1ccc(F)nc1)c1nc(-c2ccccn2)nc2c1CCC2 [Compound 127, N-(6-fluoropyridin-3-yl)-2-{methyl[2-(pyridin-2-yl)-5H,6H,7H-cyclopenta[d]pyrimidin-4-yl]amino}acetamide]	7.1
COc1ccnc(-c2nc3c(c(N(C)CC(=O)Nc4ccc(F)nc4)n2)CCC3)c1 [Compound 128, N-(6-fluoropyridin-3-yl)-2-{[2-(4-methoxypyridin-2-yl)-5H,6H,7H-cyclopenta[d]pyrimidin-4-yl](methyl)amino}acetamide]	7.4
CN(CC(=O)Nc1ccc(F)nc1)c1nc(-c2cn(C)cn2)nc2c1CCC2 [Compound 129, N-(6-fluoropyridin-3-yl)-2-{methyl[2-(1-methyl-1H-imidazol-4-yl)-5H,6H,7H-cyclopenta[d]pyrimidin-4-yl]amino}acetamide]	7.2
CN(c1nc(-c2ccccn2)nc2c1CCC2)[C@@H]1CCN(c2ccccc2)C1=O [Compound 130, (3R)-3-{methyl[2-(pyridin-2-yl)-5H,6H,7H-cyclopenta[d]pyrimidin-4-yl]amino}-1-phenylpyrrolidin-2-one]	6.9
CN(c1nc(-c2ccccn2)nc2c1CCC2)[C@H]1CCN(c2ccccc2)C1=O [Compound 131, (3S)-3-{methyl[2-(pyridin-2-yl)-5H,6H,7H-cyclopenta[d]pyrimidin-4-yl]amino}-1-phenylpyrrolidin-2-one]	7.1
COc1ccnc(-c2nc3c(c(N(C)[C@@H]4CCN(c5ccccc5)C4=O)n2)CCC3)c1 [Compound 132, (3R)-3-{[2-(4-methoxypyridin-2-yl)-5H,6H,7H-cyclopenta[d]pyrimidin-4-yl](methyl)amino}-1-phenylpyrrolidin-2-one]	7.3
COc1ccnc(-c2nc3c(c(N(C)CC(=O)NCCO)n2)CCC3)c1 [Compound 133, N-(2-hydroxyethyl)-2-{[2-(4-methoxypyridin-2-yl)-5H,6H,7H-cyclopenta[d]pyrimidin-4-yl](methyl)amino}acetamide]	7
COc1ccnc(-c2nc3c(c(N(C)CC(=O)NC4CCOCC4)n2)CCC3)c1 [Compound 134, 2-{[2-(4-methoxypyridin-2-yl)-5H,6H,7H-cyclopenta[d]pyrimidin-4-yl](methyl)amino}-N-(oxan-4-yl)acetamide]	6.9
COc1ccnc(-c2nc3c(c(N(C)CC(=O)NC4CCOC4)n2)CCC3)c1 (stereo not drawn) [Compound 135, 2-{[2-(4-methoxypyridin-2-yl)-5H,6H,7H-cyclopenta[d]pyrimidin-4-yl](methyl)amino}-N-(oxolan-3-yl)acetamide]	7.4
COc1ccnc(-c2nc3c(c(N(C)CC(=O)NC(C)(C)CO)n2)CCC3)c1 [Compound 136, N-(1-hydroxy-2-methylpropan-2-yl)-2-{[2-(4-methoxypyridin-2-yl)-5H,6H,7H-cyclopenta[d]pyrimidin-4-yl](methyl)amino}acetamide]	7.7
COc1ccnc(-c2nc3c(c(N(C)CC(=O)NC4CCCCC4)n2)CCC3)c1 [Compound 137, N-cyclohexyl-2-{[2-(4-methoxypyridin-2-yl)-5H,6H,7H-cyclopenta[d]pyrimidin-4-yl](methyl)amino}acetamide]	7.8
COc1ccnc(-c2nc3c(c(N(C)CC(=O)Nc4cccc(F)c4)n2)CCC3)c1 [Compound 138, N-(3-fluorophenyl)-2-{[2-(4-methoxypyridin-2-yl)-5H,6H,7H-cyclopenta[d]pyrimidin-4-yl](methyl)amino}acetamide]	7.8

Further lines, results first:

pEC50	SMILES
7.5	COCC(C)(C)NC(=O)CN(C)c1nc(-c2cc(OC)ccn2)nc2c1CCC2 [Compound 139, N-(1-methoxy-2-methylpropan-2-yl)-2-{[2-(4-methoxypyridin-2-yl)-5H,6H,7H-cyclopenta[d]pyrimidin-4-yl](methyl)amino}acetamide]
7	CN(CC(=O)NC1CCOCC1)c1nc(-c2cc(OCCO)ccn2)nc2c1CCC2 [Compound 140, 2-({2-[4-(2-hydroxyethoxy)pyridin-2-yl]-5H,6H,7H-cyclopenta[d]pyrimidin-4-yl}(methyl)amino)-N-(oxan-4-yl)acetamide]
7.1	COc1ccnc(-c2nc3c(c(N(C)CC(=O)N[C@@H]4CCCC[C@H]4O)n2)CCC3)c1 [Compound 141, N-[(1R,2R)-2-hydroxycyclohexyl]-2-{[2-(4-methoxypyridin-2-yl)-5H,6H,7H-cyclopenta[d]pyrimidin-4-yl](methyl)amino}acetamide]
7.4	CN(CC(=O)NC1CCCCC1)c1nc(-c2cn(C)cn2)nc2c1CCC2 [Compound 142, N-cyclohexyl-2-{methyl[2-(1-methyl-1H-imidazol-4-yl)-5H,6H,7H-cyclopenta[d]pyrimidin-4-yl]amino}acetamide]
7.2	CN(CC(=O)NC(C)(C)CO)c1nc(-c2cn(C)cn2)nc2c1CCC2 [Compound 143, N-(1-hydroxy-2-methylpropan-2-yl)-2-{methyl[2-(1-methyl-1H-imidazol-4-yl)-5H,6H,7H-cyclopenta[d]pyrimidin-4-yl]amino}acetamide]
7.5	CN(CC(=O)NC1CCCCC1)c1nc(-c2cc(OCCO)ccn2)nc2c1CCC2 [Compound 144, N-cyclohexyl-2-({2-[4-(2-hydroxyethoxy)pyridin-2-yl]-5H,6H,7H-cyclopenta[d]pyrimidin-4-yl}(methyl)amino)acetamide]
6.9	COc1cnc(-c2nc3c(c(N(C)CC(=O)NC(C)(C)C)n2)CCC3)cc1OC [Compound 145, N-tert-butyl-2-{[2-(4,5-dimethoxypyridin-2-yl)-5H,6H,7H-cyclopenta[d]pyrimidin-4-yl](methyl)amino}acetamide]
6.8	COc1ccnc(-c2nc3c(c(N(C)CC(=O)NC4(C)CCOC4)n2)CCC3)c1 (stereo not drawn) [Compound 146, 2-{[2-(4-methoxypyridin-2-yl)-5H,6H,7H-cyclopenta[d]pyrimidin-4-yl](methyl)amino}-N-(3-methyloxolan-3-yl)acetamide]
6.7	CN(CC(=O)NC1(C)CCOC1)c1nc(-c2cn(C)cn2)nc2c1CCC2 (stereo not drawn) [Compound 147, 2-{methyl[2-(1-methyl-1H-imidazol-4-yl)-5H,6H,7H-cyclopenta[d]pyrimidin-4-yl]amino}-N-(3-methyloxolan-3-yl)acetamide]
7.6	CN(CC(=O)NC(C)(C)CO)c1nc(-c2cc(OCCO)ccn2)nc2c1CCC2 [Compound 148, N-(1-hydroxy-2-methylpropan-2-yl)-2-({2-[4-(2-hydroxyethoxy)pyridin-2-yl]-5H,6H,7H-cyclopenta[d]pyrimidin-4-yl}(methyl)amino)acetamide]
7.2	CN(CC(=O)NC1CCOC1)c1nc(-c2cc(OCCO)ccn2)nc2c1CCC2 (stereo not drawn) [Compound 149, 2-({2-[4-(2-hydroxyethoxy)pyridin-2-yl]-5H,6H,7H-cyclopenta[d]pyrimidin-4-yl}(methyl)amino)-N-(oxolan-3-yl)acetamide]
7.3	CN(CC(=O)NC1CCCC1)c1nc(-c2cn(C)cn2)nc2c1CCC2 [Compound 150, N-cyclopentyl-2-{methyl[2-(1-methyl-1H-imidazol-4-yl)-5H,6H,7H-cyclopenta[d]pyrimidin-4-yl]amino}acetamide]
8.1	COc1ccnc(-c2nc3c(c(N(C)CC(=O)Nc4ccc(OC)nc4)n2)CCC3)c1 [Compound 151, 2-{[2-(4-methoxypyridin-2-yl)-5H,6H,7H-cyclopenta[d]pyrimidin-4-yl](methyl)amino}-N-(6-methoxypyridin-3-yl)acetamide]
7.9	COc1ccc(NC(=O)CN(C)c2nc(-c3cc(OC)ccn3)nc3c2CCC3)nc1 [Compound 152, N-(5-methoxypyridin-2-yl)-2-{[2-(4-methoxypyridin-2-yl)-5H,6H,7H-cyclopenta[d]pyrimidin-4-yl](methyl)amino}acetamide]
7.6	COc1ccnc(-c2nc3c(c(N(C)CC(=O)Nc4cnc(OC)nc4)n2)CCC3)c1 [Compound 153, 2-{[2-(4-methoxypyridin-2-yl)-5H,6H,7H-cyclopenta[d]pyrimidin-4-yl](methyl)amino}-N-(2-methoxypyrimidin-5-yl)acetamide]

Reference: patent US11746100B2 (GLOBAL BLOOD THERAPEUTICS, INC., priority 2020, dated 2023)
